Patent US6699970B2, “Mutacin I biosynthesis genes and proteins” (priority 2000, dated 2004)

Assays:
[1] = tested on: enterococci; assay: antimicrobial spectrum assay; format: cell-based; conditions: comparison of mutacin I and mutacin III
[2] = tested on: pneumococci; assay: antimicrobial spectrum assay; format: cell-based; conditions: comparison of mutacin I and mutacin III
[3] = tested on: Group A streptococci; assay: antimicrobial spectrum assay; format: cell-based; conditions: comparison of mutacin I and mutacin III
[4] = reverse-phase HPLC analysis (hydrophobicity); format: physicochemical; conditions: from acetonitrile concentration at elution
Excerpt: For purification, the crude extract of mutacin I (SEQ ID No: 2) was applied to a Source 15RPC column and eluted with a fragmented gradient A (0.1% TFA) and B (0.085% TFA in 60% acetonitrile) using a LKB Purifier (Amersham Pharmacia Biotech, Piscataway, N.J.). The active fractions were pooled and dried in a lyophilizer. The pellet was redissolved in 0.25% TFA and subjected to a second round purification using a fragmented gradient of buffer A (0.1% TFA) and B (0.085% TFA in 80% methanol). The single active peak fraction was collected, dried in a lyophilizer, and used for sequence analysis and electrospray ionization mass spectrometry (EIMS).

[5] = tested on: gram-positive bacteria including the multidrug-resistant Staphylococci and Enterococci; assay: spectrum of antimicrobial activity; format: cell-based

mutacin I: lantibiotic from Streptococcus mutans CH43, twenty-four amino acids in its mature form, approximately 2364 Da (FSSLSLCSLGCTGVKNPSFNSYCC)
antimicrobial activity [1]: equal activities
antimicrobial activity [2]: equal activities
antimicrobial activity [3]: equal activities
hydrophobicity [4]: more hydrophobic than mutacin III
resistance of sensitive bacteria [5]: resistance to mutacin has not been observed
spectrum of antimicrobial activity [5]: wide spectrum of antimicrobial activity
pH range of activity: works in a wide range of pH
